From patent publication US20200022370A1, “MICROBIOCIDAL OXADIAZOLE DERIVATIVES” (SYNGENTA PARTICIPATIONS AG, priority 2016, published 2020)

Experiments:
[1] = test system: Glomerella lacenarium (Colletotrichum lacenarium); experiment: Glomerella lacenarium (Colletotrichum lacenarium) liquid culture / cucumber / preventative (anthracnose); assay type: cell-based; conditions: 20 ppm, liquid culture in PDB, 24° C., inhibition of growth measured photometrically 3 to 4 days after application, vs untreated, read-out: disease control
Summary of the method: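 Cryopreserved conidia in potato dextrose broth were added to test compound in a 96-well microtiter plate and incubated at 24 °C. Growth inhibition read photometrically 3–4 days after application, as percent activity versus untreated check.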

[2] = test system: Puccinia recondita f. Sp. Tritici; experiment: Puccinia recondita f. sp. tritici / wheat / leaf disc preventative (brown rust); assay type: in vivo; conditions: foliar, 200 ppm in the applied formulation, wheat leaf segments cv. Kanzler, inoculated 1 day after application, vs untreated, 7 to 9 days after application, read-out: disease control
Summary of the method: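 Preventative leaf-segment test on wheat cv. Kanzler: formulated compound diluted in water was sprayed onto segments on agar, with spore inoculation 1 day later. Incubated at 19° C, 75% rh, 12 h light/12 h dark; percent disease control versus untreated scored 7 to 9 days after application.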

Phakopsora pachyrhizi = Phakopsora pachyrhizi / soybean / leaf disc preventative (Asian soybean rust); assay type: in vivo; conditions: foliar, 200 ppm in the applied formulation, soybean leaf disks, inoculated one day after application, vs untreated, 12 to 14 days after application, read-out: disease control
Protocol: (§1) Leaf disks or leaf segments of various plant species are cut from plants grown in a greenhouse. The cut leaf disks or segments are placed in multiwell plates (24-well format) onto water agar. The leaf disks are sprayed with a test solution before (preventative) or after (curative) inoculation. Compounds to be tested are prepared as DMSO solutions (max. 10 mg/ml) which are diluted to the appropriate concentration with 0.025% Tween20 just before spraying. The inoculated leaf disks or segments are incubated under defined conditions (temperature, relative humidity, light, etc.) according to the respective test system. A single evaluation of disease level is carried out 3 to 14 days after inoculation, depending on the pathosystem. Percent disease control relative to the untreated check leaf disks or segments is then calculated.
Example 3: Fungicidal Activity Against Phakopsora pachyrhizi/Soybean/Leaf Disc Preventative (Asian Soybean Rust)
Soybean leaf disks are placed on water agar in multiwell plates (24-well format) and sprayed with the Formulated test compound diluted in water. One day after application leaf discs are inoculated by spraying a spore suspension on the lower leaf surface. After an incubation period in a climate cabinet of 24-36 hours in darkness at 20° C. and 75% rh leaf disc are kept at 20° C. with 12 h light/day and 75% rh. The activity of a compound is assessed as percent disease control compared to untreated when an appropriate level of disease damage appears in untreated check leaf disks (12 to 14 days after application).
(§2) The following compounds at 200 ppm in the applied Formulation give at least 80% disease control in this test when compared to untreated control leaf disks under the same conditions, which show extensive disease development.

[3] = test system: Puccinia recondita f. Sp. Tritici; experiment: Puccinia recondita f. sp. tritici / wheat / leaf disc curative (brown rust); assay type: in vivo; conditions: foliar, 200 ppm in the applied formulation, wheat leaf segments cv. Kanzler, compound applied 1 day after inoculation, vs untreated, 6 to 8 days after application, read-out: disease control
Protocol: as §1
Example 2: Fungicidal Activity Against Puccinia recondita f. sp. tritici/Wheat/Leaf Disc Curative (Brown Rust)
Wheat leaf segments cv. Kanzler are placed on agar in multiwell plates (24-well format). The leaf segments are then inoculated with a spore suspension of the fungus. Plates were stored in darkness at 19° C. and 75% relative humidity. The Formulated test compound diluted in water was applied 1 day after inoculation. The leaf segments were incubated at 19° C. and 75% relative humidity under a light regime of 12 hours light/12 hours darkness in a climate cabinet and the activity of a compound was assessed as percent disease control compared to untreated when an appropriate level of disease damage appears in untreated check leaf segments (6 to 8 days after application).
as §2

CCCC(=O)Nc1ccc(-c2noc(C(F)(F)F)n2)cc1 [Compound 2.5, N-[4-[5-(trifluoromethyl)-1,2,4-oxadiazol-3-yl]phenyl] butanamide]
≥ 80%: inhibition of growth at 20 ppm [1] | pest or weed control at 200 ppm [2] | pest or weed control at 200 ppm (Phakopsora pachyrhizi) | pest or weed control at 200 ppm [3]

COCCCC(=O)N(C)c1ccc(-c2noc(C(F)(F)F)n2)cc1 [Compound 1.140, 4-methoxy-N-methyl-N-[4-[5-(trifluoromethyl)-1,2,4-oxadiazol-3-yl]phenyl]butanamide]
≥ 80%: inhibition of growth at 20 ppm [1] | pest or weed control at 200 ppm (Phakopsora pachyrhizi) | pest or weed control at 200 ppm [3]

O=C(Nc1ccc(-c2noc(C(F)(F)F)n2)cc1)C1CC=CC1 [Compound 2.7, N-[4-[5-(trifluoromethyl)-1,2,4-oxadiazol-3-yl]phenyl]cyclopent-3-ene-1-carboxamide]
≥ 80%: inhibition of growth at 20 ppm [1] | pest or weed control at 200 ppm [2] | pest or weed control at 200 ppm (Phakopsora pachyrhizi) | pest or weed control at 200 ppm [3]

O=C(Nc1ccc(-c2noc(C(F)(F)F)n2)cc1)C1(F)CC1 [Compound 1.123, 1-fluoro-N-[4-[5-(trifluoromethyl)-1,2,4-oxadiazol-3-yl]phenyl]cyclo-propanecarboxamide]
≥ 80%: inhibition of growth at 20 ppm [1] | pest or weed control at 200 ppm [2] | pest or weed control at 200 ppm (Phakopsora pachyrhizi) | pest or weed control at 200 ppm [3]

COC(C)C(=O)Nc1ccc(-c2noc(C(F)(F)F)n2)cc1 (stereo not shown) [Compound 1.112, 2-methoxy-N-[4-[5-(trifluoromethyl)-1,2,4-oxadiazol-3-yl]phenyl] propanamide]
≥ 80%: inhibition of growth at 20 ppm [1] | pest or weed control at 200 ppm [2] | pest or weed control at 200 ppm (Phakopsora pachyrhizi) | pest or weed control at 200 ppm [3]

C#CCCC(=O)Nc1ccc(-c2noc(C(F)(F)F)n2)cc1 [Compound 2.4, N-[4-[5-(trifluoromethyl)-1,2,4-oxadiazol-3-yl]phenyi]pent-4-ynamide]
≥ 80%: inhibition of growth at 20 ppm [1] | pest or weed control at 200 ppm [2] | pest or weed control at 200 ppm (Phakopsora pachyrhizi) | pest or weed control at 200 ppm [3]

CN(C(=O)C1(C)COC1)c1ccc(-c2noc(C(F)(F)F)n2)cc1 [Compound 1.139, N,3-dimethyl-N-[4-[5-(trifluoromethyl)-1,2,4-oxadiazol-3-yl]phenyl]oxetane-3-carboxamide]
≥ 80%: inhibition of growth at 20 ppm [1] | pest or weed control at 200 ppm [2] | pest or weed control at 200 ppm (Phakopsora pachyrhizi) | pest or weed control at 200 ppm [3]

CC(C)OCC(=O)Nc1ccc(-c2noc(C(F)(F)F)n2)cc1 [Compound 1.101, 2-isopropoxy-N-[4-[5-(trifluoromethyl)-1,2,4-oxadiazol-3-yl]phenyl]acetamide]
≥ 80%: inhibition of growth at 20 ppm [1] | pest or weed control at 200 ppm [2] | pest or weed control at 200 ppm [3]

CC(=O)Nc1ccc(-c2noc(C(F)(F)F)n2)cn1 [Compound 2.29, N-[5-[5-(trifluoromethyl)-1,2,4-oxadiazol-3-yl]-2-pyridyl]acetamide]
≥ 80%: inhibition of growth at 20 ppm [1] | pest or weed control at 200 ppm [2] | pest or weed control at 200 ppm (Phakopsora pachyrhizi) | pest or weed control at 200 ppm [3]

CN(C(=O)C1(C#N)CC1)c1ccc(-c2noc(C(F)(F)F)n2)cc1 [Compound 1.142, 1-cyano-N-methyl-N-[4-[5-(trifluoromethyl)-1,2,4-oxadiazol-3-yl]phenyl]cyclo-propanecarboxamide]
≥ 80%: inhibition of growth at 20 ppm [1] | pest or weed control at 200 ppm [2] | pest or weed control at 200 ppm (Phakopsora pachyrhizi) | pest or weed control at 200 ppm [3]

COCCCC(=O)Nc1ccc(-c2noc(C(F)(F)F)n2)cc1 [Compound 2.16, 4-methoxy-N-[4-[5-(trifluoromethyl)-1,2,4-oxadiazol-3-yl]phenyl] butanamide]
≥ 80%: inhibition of growth at 20 ppm [1] | pest or weed control at 200 ppm [2] | pest or weed control at 200 ppm (Phakopsora pachyrhizi) | pest or weed control at 200 ppm [3]

CON(C)C(=O)N(C)c1ccc(-c2noc(C(F)(F)F)n2)cc1 [Compound 1.126, 1-methoxy-1,3-dimethyl-3-[4-[5-(trifluoromethyl)-1,2,4-oxadiazol-3-yl]phenyl]urea]
≥ 80%: inhibition of growth at 20 ppm [1] | pest or weed control at 200 ppm [2] | pest or weed control at 200 ppm [3]

O=C(CSc1ccccc1)Nc1ccc(-c2noc(C(F)(F)F)n2)nc1 [Compound 1.55, 2-phenylsulfanyl-N-[6-[5-(trifluoromethyl)-1,2,4-oxadiazol-3-yl]-3-pyridyl]acetamide]
≥ 80%: inhibition of growth at 20 ppm [1] | pest or weed control at 200 ppm [2] | pest or weed control at 200 ppm (Phakopsora pachyrhizi) | pest or weed control at 200 ppm [3]

O=C(Cn1cccn1)Nc1ccc(-c2noc(C(F)(F)F)n2)cc1 [Compound 1.104, 2-pyrazol-1-yl-N-[4-[5-(trifluoromethyl)-1,2,4-oxadiazol-3-yl]phenyl]acetamide]
≥ 80%: inhibition of growth at 20 ppm [1] | pest or weed control at 200 ppm [2] | pest or weed control at 200 ppm [3]

CON(C(=O)C1CC1)c1ccc(-c2noc(C(F)(F)F)n2)cc1 [Compound 2.27, N-methoxy-N-[4-[5-(trifluoromethyl)-1,2,4-oxadiazol-3-yl]phenyl] cyclopropane-carboxamide]
≥ 80%: inhibition of growth at 20 ppm [1] | pest or weed control at 200 ppm (Phakopsora pachyrhizi) | pest or weed control at 200 ppm [3]

O=C(Nc1ccc(-c2noc(C(F)(F)F)n2)cc1)C1CC1 [Compound 2.15, N-[4-[5-(trifluoromethyl)-1,2,4-oxadiazol-3-yl]phenyl] cyclopropane-carboxamide]
≥ 80%: inhibition of growth at 20 ppm [1] | pest or weed control at 200 ppm [2] | pest or weed control at 200 ppm [3]

O=C(CCO)Nc1ccc(-c2noc(C(F)(F)F)n2)cc1 [Compound 1.75, 3-hydroxy-N-[4-[5-(trifluoromethyl)-1,2,4-oxadiazol-3-yl]phenyl] propanamide]
≥ 80%: inhibition of growth at 20 ppm [1] | pest or weed control at 200 ppm [2] | pest or weed control at 200 ppm [3]

COCCC(=O)N(C)c1ccc(-c2noc(C(F)(F)F)n2)cc1 [Compound 1.136, 3-methoxy-N-methyl-N-[4-[5-(trifluoromethyl)-1,2,4-oxadiazol-3-yl]phenyl] propanamide]
≥ 80%: inhibition of growth at 20 ppm [1] | pest or weed control at 200 ppm (Phakopsora pachyrhizi) | pest or weed control at 200 ppm [3]

CC(=O)N(C)c1ccc(-c2noc(C(F)(F)F)n2)cc1 [Compound 2.18, N-methyl-N-[4-[5-(trifluoromethyl)-1,2,4-oxadiazol-3-yl]phenyl] acetamide]
≥ 80%: inhibition of growth at 20 ppm [1] | pest or weed control at 200 ppm [2] | pest or weed control at 200 ppm [3]

CN(C(=O)C1CCOC1)c1ccc(-c2noc(C(F)(F)F)n2)cc1 (stereo not shown) [Compound 1.135, N-methyl-N-[4-[5-(trifluoromethyl)-1,2,4-oxadiazol-3-yl]phenyl] tetrahydrofuran-3-carboxamide]
≥ 80%: inhibition of growth at 20 ppm [1] | pest or weed control at 200 ppm (Phakopsora pachyrhizi) | pest or weed control at 200 ppm [3]
